Measured values published in PubChem BioAssay AID493077 (The Scripps Research Institute Molecular Screening Center, 2011).
Calls of active or inactive are those of the source.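 The calls were made as follows: active = Zta binding inhibitor with IC50 at or below 10 µM; inactive = IC50 above 10 µM.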

These compounds were tested against Lytic switch protein BZLF1 (Epstein-Barr virus (strain B95-8)) (UniProt P03206) (assay: EBV Zta DNA binding inhibitor potency, late-stage follow-up, counter-screen for EBNA-1 inhibitor project, biochemical, fluorescence polarization, dose response, assay provider (AID 493077)). Conditions: purified Zta, Cy5-ZRE DNA.
Lytic switch protein BZLF1 (Epstein-Barr virus (strain B95-8)), sequence (P03206 whole entry, looked up): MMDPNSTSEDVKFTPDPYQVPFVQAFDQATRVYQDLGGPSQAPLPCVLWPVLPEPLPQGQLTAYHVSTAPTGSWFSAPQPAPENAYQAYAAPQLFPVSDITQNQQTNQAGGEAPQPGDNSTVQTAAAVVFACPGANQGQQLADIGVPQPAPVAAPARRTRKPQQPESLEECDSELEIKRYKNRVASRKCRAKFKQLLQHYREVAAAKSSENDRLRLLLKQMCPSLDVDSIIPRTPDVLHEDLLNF

IC50	Structure (SMILES)
> 111 µM (inactive)	O=C(CSc1nnnn1-c1ccccc1)c1ccn(CC2CCCO2)c1 (stereo not given)
> 111 µM (inactive)	COc1cccc(C(=O)Nc2nc3ccc(S(C)(=O)=O)cc3s2)c1
> 111 µM (inactive)	CS(=O)(=O)c1ccc2nc(NC(=O)c3ccc(Cl)cc3)sc2c1
> 111 µM (inactive)	Cc1cc(C(=O)CSc2nnnn2-c2ccc(Cl)cc2)c(C)n1CC1CCCO1 (stereo not given)
> 111 µM (inactive)	COc1ccccc1C(=O)Nc1nc2ccc(S(C)(=O)=O)cc2s1
> 111 µM (inactive)	Cc1cc(C(=O)CSc2nnnn2C)c(C)n1CC1CCCO1 (stereo not given)
> 111 µM (inactive)	COc1ccc(C(=O)Nc2nc3ccc(S(C)(=O)=O)cc3s2)cc1
> 111 µM (inactive)	COc1ccc(-n2nnnc2SCC(=O)c2cc(C)n(CC3CCCO3)c2C)cc1 (stereo not given)
> 111 µM (inactive)	COc1cccc2sc(NC(=O)c3ccc(C)c(C)c3)nc12
> 111 µM (inactive)	Cc1cc(C(=O)CSc2nnnn2C2CC2)c(C)n1CC1CCCO1 (stereo not given)
> 111 µM (inactive)	COc1ccc2nc(NC(=O)c3ccc(C)c(C)c3)sc2c1
> 111 µM (inactive)	CS(=O)(=O)c1ccc2nc(NC(=O)c3cccc(Cl)c3)sc2c1
> 111 µM (inactive)	Cc1ccccc1C(=O)Nc1nc2ccc(S(C)(=O)=O)cc2s1
> 111 µM (inactive)	Cc1cc(C(=O)CSc2nnnn2-c2cccc(F)c2)c(C)n1CC1CCCO1 (stereo not given)
> 111 µM (inactive)	COCCn1c(C)cc(C(=O)CSc2nnnn2-c2ccccc2)c1C
> 111 µM (inactive)	CS(=O)(=O)c1ccc2nc(NC(=O)c3cccc(F)c3)sc2c1
> 111 µM (inactive)	Cc1cc(C(=O)CSc2nnnn2-c2ccccc2)c(C)n1C
> 111 µM (inactive)	COc1ccc2sc(NC(=O)c3ccc(C)c(C)c3)nc2c1
> 111 µM (inactive)	CS(=O)(=O)c1ccc2nc(NC(=O)c3ccccc3Cl)sc2c1
> 111 µM (inactive)	CCn1c(C)cc(C(=O)CSc2nnnn2-c2ccccc2)c1C
> 111 µM (inactive)	Cc1ccc(-n2nnnc2SCC(=O)c2cc(C)n(CC3CCCO3)c2C)cc1 (stereo not given)
> 111 µM (inactive)	Cc1ccc(C(=O)Nc2nc3cc(Br)ccc3s2)cc1C
> 111 µM (inactive)	Cc1ccc(C(=O)Nc2nc3ccc(S(C)(=O)=O)cc3s2)cc1
> 111 µM (inactive)	CS(=O)(=O)c1ccc2nc(NC(=O)c3ccccc3F)sc2c1
> 111 µM (inactive)	Cc1cccc(-n2nnnc2SCC(=O)c2cc(C)n(CC3CCCO3)c2C)c1 (stereo not given)
> 111 µM (inactive)	Cc1ccccc1-n1nnnc1SCC(=O)c1cc(C)n(CC2CCCO2)c1C (stereo not given)
> 111 µM (inactive)	Cc1ccc(C(=O)Nc2nc3ccc(Br)cc3s2)cc1C
> 111 µM (inactive)	Cc1cccc(C(=O)Nc2nc3ccc(S(C)(=O)=O)cc3s2)c1
> 111 µM (inactive)	Cc1ccc(C(=O)Nc2nc3cc(F)ccc3s2)cc1C
> 111 µM (inactive)	Cc1cc(C(=O)CSc2nnnn2-c2ccccc2)c(C)n1Cc1cccs1
